From patent US20120322060A1, “DIAGNOSIS AND MONITORING TREATMENT OF PSYCHIATRIC DISEASES WITH SPADIN AND RELATED METHODS” (CENTRE NATIONAL DE LE RECHERCHE SCIENTIFIQUE - CNRS -, priority 2011, published 2012)
Like-named read-outs stand apart in the source and are kept apart here. No end group written: not given here.

Columns and labels:
TREK-1 [1] = biological target: T1, TREK-1 (Mus musculus, UniProt P97438); experiment: Whole-cell patch-clamp on cultured pyramidal neurons from hippocampus; assay type: cell-based; design: endogenous in cells; host or cells: primary hippocampal pyramidal neurons from newborn mice; conditions: 10 μM, K+ blockers, at -50 mV, 7 out of 70 neurons
T1 sequence (P97438 1-426): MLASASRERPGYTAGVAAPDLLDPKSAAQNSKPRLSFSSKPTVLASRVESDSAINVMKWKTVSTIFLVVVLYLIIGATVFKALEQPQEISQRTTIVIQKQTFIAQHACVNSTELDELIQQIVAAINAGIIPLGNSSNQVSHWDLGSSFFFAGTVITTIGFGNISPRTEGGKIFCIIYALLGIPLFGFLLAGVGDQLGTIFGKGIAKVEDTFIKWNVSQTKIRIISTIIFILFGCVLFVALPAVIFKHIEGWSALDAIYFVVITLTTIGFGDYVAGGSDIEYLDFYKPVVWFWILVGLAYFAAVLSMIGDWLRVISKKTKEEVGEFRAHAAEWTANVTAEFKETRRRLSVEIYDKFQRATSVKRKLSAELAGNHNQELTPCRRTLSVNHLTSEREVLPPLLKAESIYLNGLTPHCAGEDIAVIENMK
Procedure: A, Cultured pyramidal neuron from hippocampus, with on top, the patch-clamp pipette. Neurons were chosen according to their morphology. B, Current recorded in response to ramps of potential obtained in the various conditions indicated (aa: arachidonic acid: 10 μM, Spadin: 1[…]μM, Fluoxetine: 20 μM). Neurons were recorded in the whole-cell configuration of the patch-clamp technique. In voltage-clamp, ramps of potential from −90 mV to 70 mV were applied every 10 sec. The % variation of the current amplitude was always measured at −50 mV. The currents were recorded in response to such ramps in control conditions and in the presence of a cocktail of potassium blockers suitable to isolate the TREK currents (10 mM tetraethyl ammonium (TEA), 3 mM 4-aminopyridine (4-AP), 50 nM charybdotoxin, 10 μM glibenclamide, 100 nM apamin). […] The blocks were reversible. C, Time course of spadin and fluoxetine effects. Applications are indicated by the horizontal bars.
Cortical neurons were prepared from 14 old mouse embryos whereas hippocampal neurons were prepared from new born mice. Briefly, dissected brain areas were dissociated and neurons were plated on polylysine-treated 35 or 60 mm dishes and maintained in culture in Neurobasal medium supplemented with B27, Glutamax and antibiotics for 2 to 3 weeks before to be used for electrophsysiological or biochemical experiments.

TREK-1 [2] = biological target: T1, TREK-1; experiment: Whole-cell patch-clamp on CA3 pyramidal neurons in hippocampus brain slices; assay type: cell-based; design: a cellular network that endogenously expresses both TREK-1 and NTSR3/Sortilin; from tissue; host or cells: mouse hippocampal brain slices, CA3 pyramidal neurons; conditions: wild-type CA3 neurons, K+ blockers, 10 μM aa, n=12
mice [3] = experiment: Elevated plus-maze; assay type: in vivo, mouse; conditions: spadin i.p. 10^-5 M, diazepam i.p. 0.5 mg/kg
Description: Elevated plus-maze. The apparatus consisted of two open and two enclosed arms of the same size (45×5 cm) with walls 15 cm high. The arms, constructed of black acrylic, radiate from a common central platform (5×5 cm) to form a plus sign. Open arms were arranged opposite to one another, as were closed arms. The maze was elevated to a height of 45 cm above floor level. Each mouse was placed in the central platform facing one of the open arms. The number of entries into the open and closed arms and the time spent on the open and closed arms were recorded during a 5 min test period. Time spent in the unprotected open arms as well as the number of entries in open arms in relation to the total of arm entries are used as experimental indices of anxiety.

mice [4] = experiment: Light/dark exploration; assay type: in vivo, mouse; conditions: spadin i.p. 10^-5 M, diazepam i.p. 0.5 mg/kg
Procedure: The apparatus consisted of a cage (25×40×20 cm) divided into two compartments by a black partition containing a small opening that allows mouse to move from one compartment to the other. One compartment, comprising […] of the surface area, was made of white plastic and was brightly illuminated. The adjoining smaller compartment was black and dark. Mice were placed in the white compartment and allowed to move freely between the two chambers for 5 minutes. The number of transitions between the two compartments, time spent in the white chamber, and latency to the first transition were recorded. Mice tend to avoid the white compartment. Thus the measures of exploration in this area (time and entrances) were used as experimental indices of anxiety.

mice [5] = experiment: Staircase test; assay type: in vivo, mouse; conditions: spadin i.p. 10^-5 M, diazepam i.p. 0.5 mg/kg
Procedure: The apparatus comprised an enclosed staircase consisted of five identical steps (2.5 cm in height×11 cm in width×7.5 cm in length), each made of black plastic. The height of the walls was constant (12.5 cm above the stairs) along the entire length of the staircase. Each mouse was placed individually on the floor of the staircase with its back to the staircase. A step was considered climbed only if the mouse placed all four paws on it. Rearing was recorded when the mouse rose on its hind legs either on the step or against the wall. The number of steps ascended and the number of rearings made in a 3-min period were recorded. Results were expressed as ratio of rearing/step numbers.

NTSR3/Sortilin = biological target: T2, NTSR3/Sortilin (Homo sapiens, UniProt Q99523); conditions: cited from earlier work; for binding activity / affinity for NTSR3/Sortilin: structure-function studies [15]
T2 sequence (Q99523 78-831): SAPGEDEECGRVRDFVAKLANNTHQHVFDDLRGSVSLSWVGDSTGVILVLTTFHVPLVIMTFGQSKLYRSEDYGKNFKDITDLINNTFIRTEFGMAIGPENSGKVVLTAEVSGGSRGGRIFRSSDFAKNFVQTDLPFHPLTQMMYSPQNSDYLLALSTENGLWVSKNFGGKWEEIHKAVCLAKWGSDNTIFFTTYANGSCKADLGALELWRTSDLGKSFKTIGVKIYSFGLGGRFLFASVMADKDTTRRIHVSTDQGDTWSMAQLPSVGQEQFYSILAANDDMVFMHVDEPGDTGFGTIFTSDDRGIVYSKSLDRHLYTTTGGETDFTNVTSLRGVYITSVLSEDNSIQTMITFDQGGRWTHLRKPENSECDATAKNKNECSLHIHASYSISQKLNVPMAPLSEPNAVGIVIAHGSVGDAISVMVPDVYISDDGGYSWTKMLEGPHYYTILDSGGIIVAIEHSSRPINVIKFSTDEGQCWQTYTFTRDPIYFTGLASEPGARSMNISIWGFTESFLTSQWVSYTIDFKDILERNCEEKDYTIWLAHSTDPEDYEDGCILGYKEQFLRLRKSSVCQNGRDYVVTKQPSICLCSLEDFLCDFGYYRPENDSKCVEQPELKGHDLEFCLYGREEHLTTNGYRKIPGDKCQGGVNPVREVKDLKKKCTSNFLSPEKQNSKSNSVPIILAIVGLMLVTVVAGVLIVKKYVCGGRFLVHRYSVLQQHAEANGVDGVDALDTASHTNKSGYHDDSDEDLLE

[6] = biological target: TREK-1 channel (expressed by transfection in COS-7 cells); experiment: cell-based or functional assay
TREK-1 [7] = biological target: T1, TREK-1; experiment: Whole-cell patch-clamp on TREK-1 transfected COS-7 cells; assay type: cell-based; design: GFP; expressed in transfected cells; host or cells: COS-7 (DEAE-dextran transfection); conditions: 500 nM, 10 μM aa, at 0 mV, n=4
Procedure: All electrophysiological experiments were done on COS-7 cells seeded at a density of 20,000 cells/35-mm dish 24 h before transfection. Cells were transfected by the classical DEAE-dextran method with TREK-1-GFP plasmids (0.1 μg/μL). Cells were visualized 48-72 h after transfection using fluorescence.
The whole-cell patch-clamp technique was used to evaluate TREK-1 potassium channel current by using a RK 400 patch-clamp amplifier (Axon Instruments, U.S.A.), as previously described. Currents were lowpass filtered at 3 kHz, digitized at 10 kHz using a 12-bit analog-to-digital converter. […] The bath solution contained (in mM): 150 NaCl, 5 KCl, 3 MgCl2, 1 CaCl2, and 10 HEPES, adjusted to pH 7.4 with NaOH; the patch pipette solution contained (in mM): 155 KCl, 3 MgCl2, 5 EGTA, and 10 HEPES, adjusted to pH 7.2 with KOH. Cells were clamped at −80 mV and voltage changes were either applied by ramp (from −100 to 50 mV, 1 s in duration) or by step (from −100 to 40 mV, 1.5 s in duration). Cells were continuously superfused with a microperfusion system. The pipette capacitance was not subtracted from total membrane capacitance and there was no leak substraction. All experiments were done at room temperature (21° C. to 22° C.) and in the presence of a cocktail of potassium channel inhibitors (K^+ blockers: 10 mM tetraethyl ammonium (TEA), 3 mM 4-aminopyridine (4-AP), 50 nM charybdotoxin, 10 μM glibenclamide, 100 nM apamin).
Pclamp software was used to analyze currents recorded in the whole-cell mode measured at 0 mV. Results are expressed as means±SD. To obtain the IC50 value for dose-dependent inhibition, experimental data were fitted with a standard sigmoidal function.

[8] = biological target: NTSR3/Sortilin (endogenous, C13NJ microglial cell line); experiment: cell-based or functional assay
[9] = biological target: TREK-1 channel (expressed by transfection in COS-7 cells); experiment: competition with 0.2 nM 125I-spadin on TREK-1 transfected COS-7 cell homogenates, filtration

Sequence of TREK-1 channel (expressed by transfection in COS-7 cells) (O95069 whole entry): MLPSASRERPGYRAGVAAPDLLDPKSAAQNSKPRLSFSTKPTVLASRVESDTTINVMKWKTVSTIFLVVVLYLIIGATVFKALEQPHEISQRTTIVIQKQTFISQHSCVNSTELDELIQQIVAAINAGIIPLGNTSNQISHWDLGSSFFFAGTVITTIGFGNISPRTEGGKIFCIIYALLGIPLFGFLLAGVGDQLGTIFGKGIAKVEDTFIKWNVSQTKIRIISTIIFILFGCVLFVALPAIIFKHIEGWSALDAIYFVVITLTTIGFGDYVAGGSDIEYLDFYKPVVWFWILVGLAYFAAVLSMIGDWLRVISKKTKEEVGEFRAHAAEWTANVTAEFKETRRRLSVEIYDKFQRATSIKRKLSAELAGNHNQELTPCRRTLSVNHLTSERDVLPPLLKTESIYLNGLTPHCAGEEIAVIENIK

Q: Which “increase of remaining current” value (TREK-1 [1]) does the source give for `CCCCC/C=C\C/C=C\C/C=C\C/C=C\CCCC(=O)O` [arachidonic acid, Arachidonic acid] here?
A: about 50%

Q: What about the “increase of amplitude of the remaining current” value (TREK-1 [2]) of the same molecule?
A: 23.3+4.8%

Q: With `CN1C(=O)CN=C(c2ccccc2)c2cc(Cl)ccc21` [diazepam, reference compound] as the molecule, how does the “time spent in the open arms” value (mice [3]) read?
A: significantly reduced the time spent into the aversive open arms

Q: And the “number of light/dark transitions” value (mice [4])?
A: significantly induced an increase

Q: What about the rearing/step numbers ratio (mice [5]) of the same molecule?
A: decrease of the rearing/step numbers ratio

Q: With “Gln^1-Arg^28: peptide Gln1-Arg28 of the NTSR3/Sortilin propeptide, from literature” as the molecule, how does the “binding activity / affinity for NTSR3/Sortilin” value (NTSR3/Sortilin) read?
A: as efficient on the binding activity as the entire propeptide

Q: And the “binding activity / affinity for NTSR3/Sortilin” value (NTSR3/Sortilin; listed as Gln^1-Arg^16)?
A: very low

Q: What does the source list for “NTSR3/Sortilin (expressed by transfection in COS-7 cells) (from UniProt Q99523 78-831) (receptor)”?
A: expression of TREK-1 within the plasma membranes (cell surface biotinylation, Western blot) [6]: 6 fold; expression of TREK-1 within the plasma membranes (purified plasma membranes, Western blot) [6]: 3 fold

Q: Which Kd (NTSR3/Sortilin; read-out: Kd for the mature receptor) does the source give for “QDRLDAPPPPAAPLPRWSGPIGVSWGLRAAAAGGAFPRGGRWRR [propeptide, 44 residue N-terminal propeptide released from prosortilin by furin]” here?
A: ~5 nM

Q: And the “block of aa stimulated TREK-1 current” value (TREK-1 [7])?
A: 41±5%

Q: For “neurotensin (from UniProt P30990 151-163) (peptide)”, which C13NJ cell migration in wound-healing assay with 10 nM NT (% of migration with 10% FCS) [8] is on record?
A: 35.1%

Q: For QDRLDAPPPPAAPLPR [N-terminal fragment Gln1-Arg16 of the full length propeptide], which affinity [9] is on record?
A: 1 µM

Q: For APLPRWSGPIGVSWGLR (also: monoiodinated (125I) on Tyr0, an added N-terminal Tyr not in given chain) [125I-spadin], which share of cell-bound 125I-spadin resistant to the acid-NaCl wash (intracellular) on TREK-1 expressing COS-7 cells at 37° C. [6] is on record?
A: 80%
